ChEMBL document CHEMBL1201862, “PubChem BioAssay data set” (2004)
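Test compounds were applied to cells in 96-well plates for 48 hours at 5 doses. Here, GI50 denotes the concentration required for 50% inhibition of growth.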 The source made the active and inactive calls. No stated cut-off is given here; in the data, active = GI50 up to about 1.1 µM and inactive = higher.

Columns and labels:
Assay in all cases: DTP human tumour cell line panel, 48 h
HCC 2998 = tested on: HCC 2998
NCI/ADR-RES = tested on: NCI/ADR-RES
BT-549 = tested on: BT-549
SK-MEL-28 = tested on: SK-MEL-28
KM12 = tested on: KM12
OVCAR-8 = tested on: OVCAR-8
786-0 = tested on: 786-0
NCI-H460 = tested on: NCI-H460
SF-268 = tested on: SF-268
ACHN = tested on: ACHN
SF-539 = tested on: SF-539
MCF7 = tested on: MCF7
SK-OV-3 = tested on: SK-OV-3
COLO 205 = tested on: COLO 205
UO-31 = tested on: UO-31
RPMI-8226 = tested on: RPMI-8226
TK-10 = tested on: TK-10
SNB-19 = tested on: SNB-19
SF-295 = tested on: SF-295

Measured: GI50

C1CCSCCCCSCCCCSCCCCSC1
inactive: HCC 2998 > 100 µM | NCI/ADR-RES > 100 µM | BT-549 > 100 µM | SK-MEL-28 > 100 µM | KM12 > 100 µM | OVCAR-8 > 100 µM | 786-0 > 100 µM | NCI-H460 > 100 µM | SF-268 > 100 µM | ACHN > 100 µM | SF-539 > 100 µM | MCF7 > 100 µM | SK-OV-3 > 100 µM | COLO 205 > 100 µM | UO-31 > 100 µM | RPMI-8226 > 100 µM | TK-10 > 100 µM | SNB-19 > 100 µM | SF-295 > 100 µM

c1ccc2c(c1)N[C@@H]1c3[nH]c4ccccc4c3CC[C@H]21
inactive: NCI/ADR-RES 13.6 µM | BT-549 18.8 µM | SK-MEL-28 18.5 µM | KM12 14 µM | OVCAR-8 12.9 µM | 786-0 15.1 µM | NCI-H460 16.8 µM | SF-268 22.4 µM | ACHN 21.4 µM | SF-539 16.6 µM | SK-OV-3 14.6 µM | COLO 205 14.7 µM | UO-31 17.7 µM | RPMI-8226 14.7 µM | TK-10 37 µM | SNB-19 17.6 µM | SF-295 13.4 µM

CC1OC(O[C@H]2C3C=CO[C@@H](OC4OC(CO)C(O)C(O)C4O)C3[C@@]3(COC(=O)/C=C/c4ccc(O)cc4)O[C@@H]23)C(O)C(O)C1O (some centres not stated)
inactive: HCC 2998 > 100 µM | NCI/ADR-RES > 100 µM | BT-549 > 100 µM | SK-MEL-28 > 100 µM | KM12 > 100 µM | OVCAR-8 > 100 µM | 786-0 > 100 µM | NCI-H460 > 100 µM | SF-268 > 100 µM | ACHN > 100 µM | MCF7 > 100 µM | SK-OV-3 > 100 µM | COLO 205 > 100 µM | UO-31 > 100 µM | RPMI-8226 > 100 µM | TK-10 > 100 µM | SNB-19 > 100 µM | SF-295 > 100 µM

NC(=S)N/N=C1\CCCCC1C(O)(C(F)(F)Cl)C(F)(F)Cl (configuration not stated)
inactive: HCC 2998 > 10 µM | NCI/ADR-RES > 10 µM | BT-549 > 10 µM | SK-MEL-28 > 10 µM | KM12 > 10 µM | OVCAR-8 > 10 µM | 786-0 > 10 µM | NCI-H460 > 10 µM | SF-268 > 10 µM | ACHN > 10 µM | SF-539 > 10 µM | MCF7 > 10 µM | SK-OV-3 > 10 µM | COLO 205 > 10 µM | RPMI-8226 > 10 µM | TK-10 > 10 µM | SNB-19 > 10 µM | SF-295 > 10 µM
